The target in assay [1] is HCV protease (Hepatitis C virus genotype 1b, UniProt P26663). As to conditions: read-out: inhibitor of HCV protease (potency); 13 residue substrate spanning P6-P7′; cited from earlier work.
Assay [2] has as its target T1, HCV NS3 protease, genotype 1a (Hepatitis C virus genotype 1a, UniProt P26664).
T1 construct: NS3 protease catalytic domain (amino acids 1 to 192); MGAQH expression leader (5 aa), or alternatively the 15 aa His tag […]; made in house; host or cells: E. coli BL21 (DE3)
The class given is biochemical. On the procedure: Endpoint HPLC based HCV protease assay: HCV protease (5 nM) was incubated in 50 mM Tris pH 7.5, 0.1% maltoside, 5 mM DTT and appropriate amounts of glycerol, NS4A peptide, and substrate. Routine assays were 100 μl in volume containing 15% or 50% glycerol, 5.0 μM NS4A peptide and 5.0 μM substrate. Reactions were run at room temperature (˜22° C.) and quenched by the addition of 4 μl of 10% TFA before 10% of the substrate was consumed. Incubation times were 20 minutes for the ester substrate (Peptide Substrate A) and 80 minutes for the P6-P7′ amide substrate (Peptide Substrate B). […] Incubation times were 90 min. Samples, 50 μl, were injected onto an Hewlett Packard 1090 Liquid Chromatograph containing a Dynamax-60A C18 column. The column was eluted with a linear gradient from 10% acetonitrile to 45% acetonitrile in water. All solvents contained 0.1% TFA. A flow rate of 1 ml/min was used. […] The product peaks were detected by fluorescence excitation at 350 nm and emission at 500 nm.
Footnote a for Table 1 references the assay condiditions: 1) Substrate A=P6-P3′, HCV protease (4.0 nM) was incubated with various concentrations of truncated analogs of Q9692 in 50 mM Tris buffer, pH 7.0, 15% glycerol, 0.1% maltoside, 5 mM DTT and 10 μM NS4A peptide in a 96-well microtiter plate at room temperature. After 15 minutes catalysis was initiated by the addition of Ac-D-E-D(EDANS)-E-E-Abuψ[COO]-A-S-K(DABCYL)—NH2 (final concentration 5.0 μM in a total reaction volume of 200 μl). Enzymatic activity was monitored by measuring the increase in fluorescence with time on a Perkin Elmer LS50B luminescence spectrometer (excitation 350 nm, emission 500 nm, both slits 10 nm). […] Assays were 100 μl in volume, reactions were run at room temperature (˜22 C) for 80 minutes (<10% of the substrate was consumed). The addition of 4 μl of 10% TFA quenched the reactions. Quantitation of hydrolysis products was determined by measuring fluorescent peak areas following HPLC. Products were detected by excitation at 350 nm and measuring emission at 500 nm. Aliquots (50 μl) of quenched enzymatic reactions were injected on an Hewlett Packard 1090 HPLC equipped with a ¼ inch Dynamex 60A C18 column. A linear gradient from 10% acetonitrile:H2O to 45% acetonitrile:H2O was run over a period of 15 min at a flow rate of 1.0 ml/min. All solvents contained 0.1% TFA.
Comparison of the effects of Q9692 on the hydrolysis of a P6-P3′ ester substrate (FIG. 2A) and a P6-P7′ substrate (FIG. 2B) and P6-P3′ amide substrate (FIG. 2C) were determined. For substrates A and B1 Concentrations of Q9692 are 0 (circles), 1 μM (squares), 2 μM (diamonds) and 4 μM (triangles). Assay conditions: HCV protease (5 nM) was incubated in 50 mM Tris buffer at pH 7.0, 15% glycerol, 0.1% maltoside, 5 mM DTT, 10 μM NS4A peptide, and specified concentration of substrate. Assays were 100 μl in volume and reactions were run at room temperature (22 C) and quenched by the addition of 4 μl of 10% TFA before 10% of the substrate was consumed. Incubation times were 20 minutes for the ester substrate and 80 minutes for the amide substrate. Hydrolysis products were quantitated by measuring fluorescent peak areas following HPLC and detection by excitation at 350 nm and measuring emission at 500 nm. Aliquots (50 μl) of quenched enzymatic reactions were injected on an Hewlett Packard 1090 HPLC equipped with a ¼ inch Dynamex 60A C18 column.

Assay [3] addresses T1, HCV NS3 protease, genotype 1a. The assay is classed as biochemical. As to conditions: P6-P3′ ester substrate, NS4a=0, relative to controls without Q9692.
Assay [4] has as its target T2, HCV protease 2A (Hepatitis C virus genotype 2a, UniProt P26660).
T2 construct: the catalytic domains of types 1b, 1J and 2a have also been examined
As to the kind of experiment: HCV protease type 2a, 13-mer substrate. The class given is biochemical. The text has this:
It is understood that other forms of HCV protease may be used in an assay for the determination of inhibitors. The present invention has disclosed the 1A form of HCV protease, however, the catalytic domains of types 1b, 1J and 2a have also been examined, as well as, the full-length version of form 1b. Evidence for the exosite exists in each case. Activation by Q9692 follows the trend of activation by NS4a. Forms of the enzyme that are more sensitive to NS4a display greater stimulation by Q9692 than forms that are less sensitive. In rank order sensitivity is 1J, 1B, 1A, and 2A. The catalytic activity of 2A toward the 9-mer substrate is enhanced by only 1.5-fold at 4 μM Q9692 and becomes inhibited by Q9692 at concentrations greater than 20 μM. […] Use of alternative forms of the HCV protease is relevent to development of an inexpensive and easy continous assay.

Where a SMILES comes first, the peptide text is derived from it. [ ]: non-standard residue; d: D form. Dip = N[C@H](C(=O)O)C(c1ccccc1)c1ccccc1; Cha = N[C@@H](CC1CCCCC1)C(=O)O

We go through 1 compound from patent US20020102533A1, “Hepatitis C protease exosite for inhibit or design” (priority 2000, published 2002).

For the compound `CC(=O)N[C@@H](CC(=O)O)C(=O)N[C@@H](CCC(=O)O)C(=O)N[C@H](C(=O)N[C@@H](CCC(=O)O)C(=O)N[C@@H](CC1CCCCC1)C(=O)N[C@@H](CS)C(=O)O)C(c1ccccc1)c1ccccc1` [Q9692, Ac-Asp-Glu-Dpa-Glu-Cha-Cys—OH] (Ac-DE[Dip]E[Cha]C-OH), the values for the Ki in assay [1] and in assay [4] were 0.05 µM and roughly 0.25 µM, respectively. Besides, the “Dixon plots of 1/V versus Q9717 concentration” value in assay [2] (5 μM substrate spanning P6-P7′) is “intersecting lines”. For the same compound, the mode of action result in assay [2] (P6-P7′ substrate, double reciprocal plots) is “competitive inhibitor”. Moreover, the “(S = P6-P7′) Inhibition (+) / Activation (−)” value in assay [2] (substrate B) was “+”. Besides, the “relative activity of the protease” value in assay [3] was roughly 1.
